US20210254056A1, “IDENTIFICATION AND TARGETED MODULATION OF GENE SIGNALING NETWORKS” (CAMP4 THERAPEUTICS CORPORATION, priority 2017, published 2021)

Test system: hepatocytes
Test: RNA-seq of hepatocytes treated with Phase III failure compounds
Description: RNA-seq was performed to determine the effects of the compounds on hepatocytes.
Significance was determined by the criteria of FPKM≥0.5, a log 2(fold-change)≥1, and a […].

COc1cc2nccc(Oc3ccc(NC(=O)Nc4cc(C)on4)c(Cl)c3)c2cc1OC [Tivozanib]
RNA-seq results, CYP2B6 expression: 0.16 | RNA-seq results, CYP2C19 expression: −1.36 | RNA-seq results, CYP2D6 expression: 0.21 | RNA-seq results, CYP3A4 expression: 0.50 | RNA-seq results, CYP7B1 expression: −1.02 | RNA-seq results, CYP39A1 expression: 0.94 | RNA-seq results: CYP2B6 expression: 0.24 | RNA-seq results: CYP2C19 expression: 0.27 | RNA-seq results: CYP2D6 expression: −0.3 | RNA-seq results: CYP3A4 expression: 0.18 | RNA-seq results: CYP7B1 expression: −0.17 | RNA-seq results: CYP39A1 expression: 0.06 | significant modulation of expression of disease genes (RNA-seq, q≤0.05, hepatocytes, genes in the value or listed in the block): significantly (q≤0.05) modulate expression | effect on disease gene expression (RNA-seq, hepatocytes): effect on expression of too many disease genes | RNA-seq results: A1BG expression (gene A1BG, hepatocytes): 0.51 | RNA-seq results: AGTR1 expression (gene AGTR1, hepatocytes): −0.47 | RNA-seq results: AGXT expression (gene AGXT, hepatocytes): 0.04 | RNA-seq results: AHI1 expression (gene AHI1, hepatocytes): 0.24 | RNA-seq results: AMPD3 expression (gene AMPD3, hepatocytes): −0.18 | RNA-seq results: AMT expression (gene AMT, hepatocytes): 0.50 | RNA-seq results: ANGPTL3 expression (gene ANGPTL3, hepatocytes): −1.56 | RNA-seq results: ANKS4B expression (gene ANKS4B, hepatocytes): −0.68 | RNA-seq results: ANKS6 expression (gene ANKS6, hepatocytes): −0.21 | RNA-seq results: ANPEP expression (gene ANPEP, hepatocytes): −1.04 | RNA-seq results: AOC2 expression (gene AOC2, hepatocytes): −0.20 | RNA-seq results: APOA2 expression (gene APOA2, hepatocytes): 0.31 | RNA-seq results: APOA5 expression (gene APOA5, hepatocytes): −0.09 | RNA-seq results: APOB expression (gene APOB, hepatocytes): −0.40 | RNA-seq results: COG5 expression (gene COG5, hepatocytes): −0.02 | RNA-seq results: COG6 expression (gene COG6, hepatocytes): −0.09 | RNA-seq results: COL1A1 expression (gene COL1A1, hepatocytes): −0.35 | RNA-seq results: COX6A1 expression (gene COX6A1, hepatocytes): −0.05 | RNA-seq results: CP expression (gene CP, hepatocytes): 0.36 | RNA-seq results: CPS1 expression (gene CPS1, hepatocytes): 0.2 | RNA-seq results: CPT1A expression (gene CPT1A, hepatocytes): 0.08 | RNA-seq results: CPT2 expression (gene CPT2, hepatocytes): 0.07 | RNA-seq results: CROT expression (gene CROT, hepatocytes): −0.02 | RNA-seq results: CSPP1 expression (gene CSPP1, hepatocytes): 0.35 | RNA-seq results: CTC1 expression (gene CTC1, hepatocytes): −0.04 | RNA-seq results: CTDSP2 expression (gene CTDSP2, hepatocytes): 0 | RNA-seq results: CTH expression (gene CTH, hepatocytes): 0.11 | RNA-seq results: CTNS expression (gene CTNS, hepatocytes): −0.16 | RNA-seq results: CTSF expression (gene CTSF, hepatocytes): −0.1 | RNA-seq results: CTSK expression (gene CTSK, hepatocytes): 0.32 | RNA-seq results: CYB5A expression (gene CYB5A, hepatocytes): 0.09 | RNA-seq results: CYB5R3 expression (gene CYB5R3, hepatocytes): −0.25 | RNA-seq results: CYP27A1 expression (gene CYP27A1, hepatocytes): 0.02 | RNA-seq results: DAO expression (gene DAO, hepatocytes): 0.02 | RNA-seq results: DBT expression (gene DBT, hepatocytes): 0.18 | RNA-seq results: DCDC2 expression (gene DCDC2, hepatocytes): 0.25 | RNA-seq results: DCXR expression (gene DCXR, hepatocytes): −0.35 | RNA-seq results: FABP1 expression (gene FABP1, hepatocytes): 0.25 | RNA-seq results: FADD expression (gene FADD, hepatocytes): −0.32 | RNA-seq results: FAM111A expression (gene FAM111A, hepatocytes): 0.18 | RNA-seq results: FAM111B expression (gene FAM111B, hepatocytes): 0.01 | RNA-seq results: FAN1 expression (gene FAN1, hepatocytes): 0.06 | RNA-seq results: FARS2 expression (gene FARS2, hepatocytes): −0.06 | RNA-seq results: FASLG expression (gene FASLG, hepatocytes): −0.16 | RNA-seq results: FGA expression (gene FGA, hepatocytes): 0.15 | RNA-seq results: FGD1 expression (gene FGD1, hepatocytes): −0.42 | RNA-seq results: FGFR2 expression (gene FGFR2, hepatocytes): 0.36 | RNA-seq results: FIG4 expression (gene FIG4, hepatocytes): 0.29 | RNA-seq results: FIS1 expression (gene FIS1, hepatocytes): 0.01 | RNA-seq results: FTCD expression (gene FTCD, hepatocytes): −0.28 | RNA-seq results: FTH1 expression (gene FTH1, hepatocytes): −0.33 | RNA-seq results: FUCA1 expression (gene FUCA1, hepatocytes): 0.06 | RNA-seq results: FXN expression (gene FXN, hepatocytes): −0.37 | RNA-seq results: G6PC3 expression (gene G6PC3, hepatocytes): −0.21 | RNA-seq results: G6PC expression (gene G6PC, hepatocytes): −0.01 | RNA-seq results: G6PD expression (gene G6PD, hepatocytes): −0.09 | RNA-seq results: GALK1 expression (gene GALK1, hepatocytes): −0.45 | RNA-seq results: GALK2 expression (gene GALK2, hepatocytes): −0.06 | RNA-seq results: GALT expression (gene GALT, hepatocytes): 0 | RNA-seq results: GATA6 expression (gene GATA6, hepatocytes): −0.71 | RNA-seq results: GATM expression (gene GATM, hepatocytes): −0.01 | RNA-seq results: GBA expression (gene GBA, hepatocytes): 0.02 | RNA-seq results: GBE1 expression (gene GBE1, hepatocytes): −0.06 | RNA-seq results: GCH1 expression (gene GCH1, hepatocytes): −0.12 | RNA-seq results: GCKR expression (gene GCKR, hepatocytes): 0.14 | RNA-seq results: GCLC expression (gene GCLC, hepatocytes): −0.06 | RNA-seq results: GOSH expression (gene GOSH, hepatocytes): −1.23 | RNA-seq results: RRM2B (gene RRM2B, hepatocytes): −0.32 | RNA-seq results: RSAD1 (gene RSAD1, hepatocytes): 0.01 | RNA-seq results: SAMHD1 (gene SAMHD1, hepatocytes): −1.92 | RNA-seq results: SC5D (gene SC5D, hepatocytes): 0.47 | RNA-seq results: SCARB1 (gene SCARB1, hepatocytes): −0.67 | RNA-seq results: SCN9A (gene SCN9A, hepatocytes): −0.32 | RNA-seq results: SDCCAG8 (gene SDCCAG8, hepatocytes): −0.50 | RNA-seq results: SEPN1 (gene SEPN1, hepatocytes): −1.37 | RNA-seq results: SERAC1 (gene SERAC1, hepatocytes): −0.31 | RNA-seq results: SERPINA1 (gene SERPINA1, hepatocytes): 0.12 | RNA-seq results: SERPING1 (gene SERPING1, hepatocytes): 0.14 | RNA-seq results: SERPINI1 (gene SERPINI1, hepatocytes): −0.06 | RNA-seq results: SETBP1 (gene SETBP1, hepatocytes): −0.38 | RNA-seq results: SFXN4 (gene SFXN4, hepatocytes): 0.25 | RNA-seq results: SLC10A1 (gene SLC10A1, hepatocytes): −0.16 | RNA-seq results: SLC10A3 (gene SLC10A3, hepatocytes): −0.82 | RNA-seq results: SLC10A5 (gene SLC10A5, hepatocytes): −1.06 | RNA-seq results: SLC10A7 (gene SLC10A7, hepatocytes): −0.12 | RNA-seq results: SLC11A2 (gene SLC11A2, hepatocytes): −0.44 | RNA-seq results: SLC19A1 (gene SLC19A1, hepatocytes): −0.33 | RNA-seq results: SLC19A2 (gene SLC19A2, hepatocytes): −0.15 | RNA-seq results: SLC19A3 (gene SLC19A3, hepatocytes): −0.16 | RNA-seq results: SLC22A1 (gene SLC22A1, hepatocytes): 0.24 | RNA-seq results: SLC22A5 (gene SLC22A5, hepatocytes): −0.38 | RNA-seq results: SLC25A1 (gene SLC25A1, hepatocytes): −0.61 | RNA-seq results: SLC25A10 (gene SLC25A10, hepatocytes): −0.64 | RNA-seq results: SLC25A12 (gene SLC25A12, hepatocytes): −0.97 | RNA-seq results: SLC25A13 (gene SLC25A13, hepatocytes): −0.53 | RNA-seq results: SLC25A15 (gene SLC25A15, hepatocytes): −0.18 | RNA-seq results: SLC25A19 (gene SLC25A19, hepatocytes): −0.47 | RNA-seq results: SLC25A20 (gene SLC25A20, hepatocytes): −1.32 | RNA-seq results: SLC25A29 (gene SLC25A29, hepatocytes): −0.54 | RNA-seq results: SLC25A32 (gene SLC25A32, hepatocytes): −0.47

COc1nc(N)nc2c1ncn2[C@@H]1O[C@H](COP(=O)(N[C@@H](C)C(=O)OCC(C)(C)C)Oc2cccc3ccccc23)[C@@H](O)[C@@]1(C)O (stereo partly shown) [bms-986094]
Number (#) of genes having significantly changed expression: 2079
